Assays:
TNF-alpha = TNF-alpha Quantification Assay (ELISA), LPS-stimulated RAW 264.7; type: cell-based; details: Mus musculus, RAW264.7; at 10 μM; read-out: TNFα: % inh.
Akt phosphorylation = assay: Akt Phosphorylation Assay (western blot), Panc-1; type: cell-based, human; details: at 10 μM, * = activation
In short: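 Phospho-Akt (Ser473) was measured by western blot in lysates of KRas G12D Panc-1 cells exposed to test compound for 6 h at 37 °C, either at 10 μM final with 0.3% DMSO or as serial dilutions for IC50. One format used overnight 0.5% FBS starvation followed by a 15 min pulse of 1.5 ng/ml EGF. The other used cells in 10% FBS with no stimulation.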

KRas wild type = assay: Ras GTP Binding Domain Inhibition Assay (Ras Superfamily Assay); details: for KRas wild type + SOS: % inh.: with SOS; for KRas wild type: % inh.: without SOS
In short: (§1)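 His-tagged GTPases immobilised on nickel-coated plates, pre-incubated with compound (20 μM single point, or serial dilution for IC50) 3 h at room temperature, with or without 10-30 μg/mL Sos (residues 556-1049) in the final hour. Bound Cy3- or Cy5-GTP (100 nM, 45 min) measured by fluorescence after washing.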

KRas Q61H mutant = assay: as above; details: 20 μM compound
In short: as §1

Rho-A = molecular target: T1, Rho-A (Homo sapiens, UniProt P61586); assay: as above; details: read-out: Rho-A: % inh..
T1 construct: made in house
T1 sequence (P61586 whole entry): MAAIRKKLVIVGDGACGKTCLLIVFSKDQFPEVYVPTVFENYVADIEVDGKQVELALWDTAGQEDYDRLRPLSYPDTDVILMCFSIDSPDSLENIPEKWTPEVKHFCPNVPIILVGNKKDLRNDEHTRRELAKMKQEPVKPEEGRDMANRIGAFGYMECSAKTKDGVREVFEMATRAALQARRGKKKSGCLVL
In short: as §1

Rac-1 = molecular target: T2, Rac-1 (Homo sapiens, UniProt P63000); assay: as above; details: read-out: Rac-1: % inh.
T2 construct: made in house
In short: as §1

KRas G12D mutant = assay: as above; details: for KRas G12D mutant + SOS: % inh.: with SOS; for KRas G12D mutant: % inh.: without SOS
In short: as §1

KRas G12C mutant = assay: as above; details: 20 μM compound; for KRas G12C mutant + SOS: % inh.: with SOS; for KRas G12C mutant: % inh.: without SOS
In short: as §1

IL6 = assay: IL-6 Quantification Assay (ELISA), LPS-stimulated RAW 264.7; type: cell-based; parameters: inhibition: dose or concentration left out as unconfirmed; details: Mus musculus, RAW264.7; read-out: IL-6: % inh.

Compound	inhibition at 10 µM (TNF-alpha) [%]	% inh of Akt phosphorylation in Panc-1 (Akt phosphorylation)	KRas wild type + SOS: % inh. (KRas wild type; 20 μM compound)	KRas wild type: % inh. (KRas wild type; 20 μM compound)	KRas Q61H mutant + SOS: % inh. (KRas Q61H mutant; with SOS)	KRas Q61H mutant: % inh. (KRas Q61H mutant; without SOS)	inhibition at 20 µM (Rho-A) [%]	inhibition at 20 µM (Rac-1) [%]	KRas G12D mutant + SOS: % inh. (KRas G12D mutant; 20 μM compound)	KRas G12D mutant: % inh. (KRas G12D mutant; 20 μM compound)	KRas G12C mutant + SOS: % inh. (KRas G12C mutant)	KRas G12C mutant: % inh. (KRas G12C mutant)	inhibition (IL6) [%]	KRas wild type + SOS: % inh. (KRas wild type; at 20 μM)	KRas wild type: % inh. (KRas wild type; at 20 μM)	KRas G12D mutant + SOS: % inh. (KRas G12D mutant; at 20 μM)	KRas G12D mutant: % inh. (KRas G12D mutant; at 20 μM)
COc1ccc(-c2cn3nc(-c4nccn4C)nc(Nc4cc(OC)ncn4)c3c2C)cn1 [Compound 66, 6-(6-Methoxypyridin-3-yl)-N-(6-methoxypyrimidin-4-yl)-5-methyl-2-(1-methyl-1H-imidazol-2-yl)pyrrolo[2,1-f][1,2,4]triazin-4-amine]	1 to 24	D* (85-100% activation)	D (D = 76-100% inhibition)	D (D = 76-100% inhibition)	D (D = 76-100% inhibition)	D (D = 76-100% inhibition)	76 to 100	76 to 100	D (D = 76-100% inhibition)	D (D = 76-100% inhibition)	C (C = 50-75% inhibition)	D (D = 76-100% inhibition)	1 to 24	–	–	–	–
Cc1c(-c2ccn(C(C)C)n2)cn2nc(-c3nccn3C)nc(Nc3ccncc3)c12 [Compound 52, 6-(1-Isopropyl-1H-pyrazol-3-yl)-5-methyl-2-(1-methyl-1H-imidazol-2-yl)-N-(pyridin-4-yl)pyrrolo[2,1-f][1,2,4]triazin-4-amine]	1 to 24	B (26-49% inhibition)	A (A = 1-25% inhibition)	0 (0 = 0% inhibition)	–	–	0	0	A (A = 1-25% inhibition)	A (A = 1-25% inhibition)	A (A = 1-25% inhibition)	0 (0 = 0% inhibition)	0	–	–	–	–
COc1ccc(Nc2nc(-c3nccn3C)nn3cc(-c4ccn(C(C)C)n4)c(C)c23)nn1 [Compound 74, 6-(1-Isopropyl-1H-pyrazol-3-yl)-N-(6-methoxypyridazin-3-yl)-5-methyl-2-(1-methyl-1H-imidazol-2-yl)pyrrolo[2,1-f][1,2,4]triazin-4-amine]	1 to 24	D* (85-100% activation)	–	–	–	–	26 to 49	1 to 25	–	–	–	–	1 to 24	–	–	–	–
Cc1[nH]nc(Nc2nc(-c3nccn3C)nn3cc(-c4ccn(C)n4)c(C)c23)c1C [Compound 267, N-(4,5-Dimethyl-1H-pyrazol-3-yl)-5-methyl-2-(1-methyl-1H-imidazol-2-yl)-6-(1-methyl-1H-pyrazol-3-yl)pyrrolo[2,1-f][1,2,4]triazin-4-amine]	1 to 24	D* (85-100% activation)	–	–	–	–	–	76 to 100	–	–	–	–	50 to 74	D (D = 76-100% inhibition)	D (D = 76-100% inhibition)	D (D = 76-100% inhibition)	D (D = 76-100% inhibition)
Cc1c(-c2ccn(C)n2)cn2nc(-c3nccn3C)nc(Nc3cc(-c4cccnc4)[nH]n3)c12 [Compound 264, 5-Methyl-2-(1-methyl-1H-imidazol-2-yl)-6-(1-methyl-1H-pyrazol-3-yl)-N-(5-(pyridin-3-yl)-1H-pyrazol-3-yl)pyrrolo[2,1-f][1,2,4]triazin-4-amine]	25 to 49	D* (85-100% activation)	–	–	–	–	–	76 to 100	–	–	–	–	75 to 100	D (D = 76-100% inhibition)	C (C = 50-75% inhibition)	D (D = 76-100% inhibition)	C (C = 50-75% inhibition)
COc1cccc(-c2cn3nc(-c4nccn4C)nc(N[C@H]4C[C@@H](OC)C4)c3c2-c2ccccc2)c1C [Compound 269, 6-(3-Methoxy-2-methylphenyl)-N-((1s,3s)-3-methoxycyclobutyl)-2-(1-methyl-1H-imidazol-2-yl)-5-phenylpyrrolo[2,1-f][1,2,4]triazin-4-amine]	75 to 100	C (50-84% inhibition)	–	–	–	–	–	26 to 49	–	–	–	–	75 to 100	A (A = 1-25% inhibition)	C (C = 50-75% inhibition)	B (B = 26-49% inhibition)	B (B = 26-49% inhibition)
Cc1c(-c2ccn(C)n2)cn2nc(-c3nccn3C)nc(Nc3cc(C(C)C)[nH]n3)c12 [Compound 268, N-(5-Isopropyl-1H-pyrazol-3-yl)-5-methyl-2-(1-methyl-1H-imidazol-2-yl)-6-(1-methyl-1H-pyrazol-3-yl)pyrrolo[2,1-f][1,2,4]triazin-4-amine]	25 to 49	D* (85-100% activation)	–	–	–	–	–	76 to 100	–	–	–	–	75 to 100	D (D = 76-100% inhibition)	C (C = 50-75% inhibition)	D (D = 76-100% inhibition)	C (C = 50-75% inhibition)
COc1cc(Nc2nc(-c3nccn3C)nn3cc(-c4ccn(C(C)C)n4)c(C)c23)n[nH]1 [Compound 51, 6-(1-Isopropyl-1H-pyrazol-3-yl)-N-(5-methoxy-1H-pyrazol-3-yl)-5-methyl-2-(1-methyl-1H-imidazol-2-yl)pyrrolo[2,1-f][1,2,4]triazin-4-amine]	25 to 49	D* (85-100% activation)	C (C = 50-75% inhibition)	D (D = 76-100% inhibition)	–	–	76 to 100	76 to 100	C (C = 50-75% inhibition)	D (D = 76-100% inhibition)	C (C = 50-75% inhibition)	C (C = 50-75% inhibition)	50 to 74	–	–	–	–
COc1cc(Nc2nc(-c3nccn3C)nn3cc(-c4ccn(C)n4)c(C)c23)n[nH]1 [Compound 252, N-(5-Methoxy-1H-pyrazol-3-yl)-5-methyl-2-(1-methyl-1H-imidazol-2-yl)-6-(1-methyl-1H-pyrazol-3-yl)pyrrolo[2,1-f][1,2,4]triazin-4-amine]	0	D* (85-100% activation)	–	–	–	–	–	76 to 100	–	–	–	–	1 to 24	D (D = 76-100% inhibition)	C (C = 50-75% inhibition)	D (D = 76-100% inhibition)	D (D = 76-100% inhibition)
Cc1c(-c2ccn(C)n2)cn2nc(-c3nccn3C)nc(Nc3cc(-n4ccnc4C)ccn3)c12 [Compound 246, 5-Methyl-N-(4-(2-methyl-1H-imidazol-1-yl)pyridin-2-yl)-2-(1-methyl-1H-imidazol-2-yl)-6-(1-methyl-1H-pyrazol-3-yl)pyrrolo[2,1-f][1,2,4]triazin-4-amine]	0	D* (85-100% activation)	–	–	–	–	–	76 to 100	–	–	–	–	25 to 49	D (D = 76-100% inhibition)	D (D = 76-100% inhibition)	D (D = 76-100% inhibition)	D (D = 76-100% inhibition)
Cc1c(-c2ccn(C)n2)cn2nc(-c3nccn3C)nc(Nc3cc[nH]n3)c12 [Compound 256, 5-Methyl-2-(1-methyl-1H-imidazol-2-yl)-6-(1-methyl-1H-pyrazol-3-yl)-N-(1H-pyrazol-3-yl)pyrrolo[2,1-f][1,2,4]triazin-4-amine]	0	D* (85-100% activation)	–	–	–	–	–	76 to 100	–	–	–	–	50 to 74	D (D = 76-100% inhibition)	A (A = 1-25% inhibition)	D (D = 76-100% inhibition)	D (D = 76-100% inhibition)
CO[C@H]1C[C@H](Nc2nc(-c3nccn3C)nn3cc(-c4ccn(C)n4)c(C4CC4)c23)C1 [Compound 275, 5-Cyclopropyl-N-((1r,3r)-3-methoxycyclobutyl)-2-(1-methyl-1H-imidazol-2-yl)-6-(1-methyl-1H-pyrazol-3-yl)pyrrolo[2,1-f][1,2,4]triazin-4-amine]	0	D* (85-100% activation)	–	–	–	–	–	1 to 25	–	–	–	–	0	0 (0 = 0% inhibition)	A (A = 1-25% inhibition)	A (A = 1-25% inhibition)	A (A = 1-25% inhibition)
